Calls of active or inactive are those of the source. The calls are words filed in the database; no cut-off is given here.
Legend:
[1] = target: T1, GABA-A receptor; anion channel (Homo sapiens) (UniProt P14867+P47870+P18507+P28472+P48169+Q99928+Q9UN88+P34903+O00591+O14764+Q8N1C3+P18505+P78334+P47869+P31644+Q16445); assay: Reduction of [3H]flunitrazepam binding to cerebral cortex GABA-A receptor at 100 uM relative to control; assay type: tissue-based; design: scale not given: the % may be the effect or the level left
[2] = target: T2, Serotonin 3 (5-HT3) receptor (Homo sapiens) (UniProt P46098+A5X5Y0+O95264+Q70Z44+Q8WXA8); assay: Inhibition of 5HT3 receptor at 2.3 uM; assay type: protein-complex assay
Xenopus sp. = assay: Anesthetic activity in Xenopus tadpole measured as loss of righting reflex; assay type: functional, organism-based
[3] = target: T1, GABA-A receptor; anion channel (Homo sapiens); assay: Enhancement of [3H]flunitrazepam binding to cerebral cortex GABA-A receptor at >=1 uM; assay type: tissue-based
[4] = target: T3, Acetylcholine receptor subunit delta (Torpedo californica) (UniProt P02718); assay: Photolabeling of Torpedo californica delta nAChR in presence of agonist relative to in absence of agonist; assay type: functional; conditions: Tetronarce californica
T3 sequence (whole entry): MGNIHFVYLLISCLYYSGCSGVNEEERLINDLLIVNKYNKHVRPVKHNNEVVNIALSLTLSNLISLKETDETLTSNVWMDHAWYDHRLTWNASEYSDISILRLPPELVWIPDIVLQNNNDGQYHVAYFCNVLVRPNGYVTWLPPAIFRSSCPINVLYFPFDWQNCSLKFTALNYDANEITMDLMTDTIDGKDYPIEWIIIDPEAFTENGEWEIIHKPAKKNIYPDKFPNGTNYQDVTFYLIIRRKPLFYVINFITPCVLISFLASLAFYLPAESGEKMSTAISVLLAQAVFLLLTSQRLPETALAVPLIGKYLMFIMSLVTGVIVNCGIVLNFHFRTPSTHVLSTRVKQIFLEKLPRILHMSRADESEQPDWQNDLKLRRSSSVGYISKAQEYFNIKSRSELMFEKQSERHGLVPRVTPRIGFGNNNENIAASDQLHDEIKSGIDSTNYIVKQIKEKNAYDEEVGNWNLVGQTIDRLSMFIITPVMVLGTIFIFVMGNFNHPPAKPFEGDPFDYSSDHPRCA

[5] = target: T4, GABA-A receptor; alpha-1/beta-2/gamma-2 (Homo sapiens) (UniProt P14867+P47870+P18507); assay: Enhancement of current in Xenopus laevis oocytes expressing human GABA-Alpha1 receptor plus beta-2-gamma-2L upto 10 uM; assay type: functional, cell-based; conditions: Oocyte
[6] = target: T1, GABA-A receptor; anion channel (Homo sapiens); assay: Enhancement of [3H]flunitrazepam binding to cerebral cortex GABA-A receptor at 0.1 uM; assay type: tissue-based
[7] = target: T2, Serotonin 3 (5-HT3) receptor (Homo sapiens); assay: Inhibition of 5HT3 receptor at 0.22 uM; assay type: protein-complex assay
[8] = target: Acetylcholine receptor subunit alpha (Torpedo californica) (UniProt P02710); assay: Photolabeling of Torpedo californica alpha nAChR in presence of agonist relative to in absence of agonist; assay type: functional; conditions: Tetronarce californica
Sequence of Acetylcholine receptor subunit alpha (Torpedo californica) (P02710 whole entry): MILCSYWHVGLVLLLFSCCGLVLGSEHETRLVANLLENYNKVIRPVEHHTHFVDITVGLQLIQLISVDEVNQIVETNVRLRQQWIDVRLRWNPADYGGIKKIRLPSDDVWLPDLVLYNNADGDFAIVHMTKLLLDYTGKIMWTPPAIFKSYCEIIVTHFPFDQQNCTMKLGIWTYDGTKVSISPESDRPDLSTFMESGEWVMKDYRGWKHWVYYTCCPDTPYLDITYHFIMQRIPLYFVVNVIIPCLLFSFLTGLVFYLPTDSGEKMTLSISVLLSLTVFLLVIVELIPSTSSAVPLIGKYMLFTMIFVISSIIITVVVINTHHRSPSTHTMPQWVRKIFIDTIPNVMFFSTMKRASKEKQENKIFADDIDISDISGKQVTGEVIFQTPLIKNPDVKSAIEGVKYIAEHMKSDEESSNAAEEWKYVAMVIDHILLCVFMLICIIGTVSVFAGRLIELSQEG

[9] = target: T4, GABA-A receptor; alpha-1/beta-2/gamma-2 (Homo sapiens); assay: Enhancement of current in Xenopus laevis oocytes expressing human GABA-Alpha1 receptor plus beta-2-gamma-2L upto 1 uM; assay type: functional, cell-based; conditions: Oocyte
[10] = target: T2, Serotonin 3 (5-HT3) receptor (Homo sapiens); assay: Inhibition of 5HT3 receptor at 0.7 uM; assay type: protein-complex assay
[11] = target: T1, GABA-A receptor; anion channel (Homo sapiens); assay: Enhancement of [3H]flunitrazepam binding to cerebral cortex GABA-A receptor at 1 uM; assay type: tissue-based
[12] = target: T2, Serotonin 3 (5-HT3) receptor (Homo sapiens); assay: Inhibition of 5HT3 receptor at 2.2 uM; assay type: protein-complex assay
[13] = target: T1, GABA-A receptor; anion channel (Homo sapiens); assay: Enhancement of [3H]flunitrazepam binding to cerebral cortex GABA-A receptor at >=0.3 uM; assay type: tissue-based

## CCOC(=O)c1cncn1[C@H](C)c1ccccc1 [ETOMIDATE]
[1]
  Activity: 78.5%
[2]
  inhibition: 11%
Xenopus sp.
  EC50: 2300 nM
[3]
  Activity: Active

## C[N+](C)(C)CCOC(N)=O
[4]
  Activity: 60%

## C[C@H](c1ccccc1)n1cncc1C(=O)OCc1ccc(C(=O)c2ccccc2)cc1
[5]
  Activity: inactive
[6]
  Activity: Active
[7]
  inhibition: < 10%
Xenopus sp.
  EC50: 220 nM

## CCCC(C(=O)OCCN(CC)CC)(c1ccccc1)c1ccccc1
[8]
  Activity: 70%

## C[C@H](c1ccccc1)n1cncc1C(=O)OCc1ccc(C2(C(F)(F)F)N=N2)cc1
[9]
  Activity: inactive
[10]
  inhibition: < 10%
[11]
  Activity: Active
Xenopus sp.
  EC50: 700 nM

## CC(c1ccccc1)n1cncc1C(=O)OCCC1(C)N=N1 (stereo not drawn) [AZIETOMIDATE]
[12]
  inhibition: 8%
[1]
  Activity: 115%
[13]
  Activity: Active
Xenopus sp.
  EC50: 2200 nM
